According to article PMC12566971, “Polyprenylated Acylphloroglucinols from Hypericum rochelii and Hypericum olympicum—Cytotoxic Effects on Non-Tumorigenic Cell Lines and Antibacterial Potential” (Pharmaceuticals, 2025):
Converted amounts (≈) assume the structure as drawn. Where two headings read alike, the source gives them in different places.

Key:
[1] = system: HT-22 and SH-SY5Y cells; conditions: concentration where viability was restored to about 75%, ref [103]; read-out: Effective concentration 50 (EC50), neuroprotection; cited from earlier work
[2] = system: Enterococcus faecalis; assay: MIC and MBC evaluation (broth microdilution, agar plate assay); assay type: cell-based
Description: (§1) The MIC and MBC assessment on the pathogenic bacteria and the candidate probiotic lactic acid bacteria was carried out by the broth microdilution assay (BMD) and the agar plate assay, respectively, as described in [4]. The metabolic (dehydrogenase) activity of the lactic acid bacteria was assessed as described in [4].
(§2) P. aeruginosa PAO1 ATCC 15692 was purchased from the American Type Cell Culture Collection (ATCC, Manassas, VA, USA). S. mutans DSM 20523 was bought from the German Collection of Microorganisms and Cell Cultures (DSMZ GmbH, Braunschweig, Germany). All other bacteria and strains were purchased as described in [4].

[3] = system: Staphylococcus aureus; assay: as above; assay type: cell-based; conditions: for MBC: read-out: Minimal bactericidal concentration (MBC), Staphylococcus aureus; for MBC/MIC ratio, S. aureus: bactericidal if ≤ 4, bacteriostatic if > 4
Description: as §1, §2

[4] = system: Methicillin-Resistant S. aureus (MRSA); assay: as above; assay type: cell-based, Staphylococcus aureus
Description: as §1, §2

[5] = system: Staphylococcus aureus; conditions: ref [4],[29]; cited from earlier work
[6] = system: Streptococcus pyogenes; conditions: ref [4],[29]; cited from earlier work
[7] = system: CCL-1; assay: MTT assay for cytotoxicity; assay type: cell-based, murine
Description: (§3) The MTT assay was performed according to Annex C, ISO 10993-5 [56] as in [116]. The panel of non-tumorigenic cell lines consisted of one murine (CCL-1 fibroblasts, which are recommended as a standard for cytotoxicity evaluation in Annex C of ISO 10993-5 [56]) and four human cell lines—HaCaT (immortalized epidermal keratinocytes), HGF (gingival fibroblasts), HEK-293 (embryonic cells from kidney epithelium), and HEPG2 (hepatoblastoma). Although technically a cancer cell line, HEPG2 is non-tumorigenic and retains many hepatocyte-related features in its proteome and a high degree of morphological and functional differentiation, also being a stage one hepatoblastoma.
(§4) CCL-1 was purchased from ATCC and HaCaT and HGF were bought from CLS Cell Lines Service (GmbH, Eppelheim, Germany). HEK-293 and HEPG2 were obtained from DSMZ. The cell culture medium for HaCaT and HEPG2 was Dulbecco’s Modified Eagle Medium (DMEM) with 4.5 g/L glucose (DMEM-HA). For HGF it was DMEM/F-12 (DMEM-12-A, a 1:1 mixture of DMEM and Ham’s F-12 medium). The cell medium for CCL-1 and HEK-293 was Eagle’s Minimum Essential Medium (MEM) (MEM-A). Ten percent heat-inactivated fetal bovine serum (FBS) was added to all media but to the one for the CCL-1 cells, to which 10% heat-inactivated horse serum was added. All media were supplemented with 2 mM L-glutamine and Penicillin/Streptomycin (Pen/Strep, 100×). The cell culture media, sera, and additives were from Capricorn Scientific (Düsseldorf, Germany).
(§5) GraphPad Prism software version 9 (GraphPad Software Inc., San Diego, CA, USA) was used to calculate the IC50 values from the MTT assays as in [116], as well as the MTC values, and the ELISA standard curves. The MTC values are, according to ISO 10993-5, the maximum concentration at which at least 70% of the cells are viable (nonlin fit, range).

[8] = system: Human gingival fibroblasts (HGF); assay: MTT assay for cytotoxicity; assay type: cell-based
Description: as §3, §4, §5

[9] = system: Human embryonic kidney-293 (HEK-293); assay: MTT assay for cytotoxicity; assay type: cell-based
Description: as §3, §4, §5

[10] = system: HEK-293 cells; assay: Colony-forming unit assay; assay type: cell-based, human; conditions: for Percentage of colonies, HEK-293: untreated control = 100%
Description: (§6) The CFU was also performed according to ISO 10993-5 [56]. Briefly, the cell lines were seeded at a concentration like for the MTT assay in 6-well plates, treated with the chosen agents and left for a 48 h exposure. Then, the cells were trypsinized, and pre-calculated 20 to 100 µL from the cell suspension was added to a sterile Roswell Park Memorial Institute (RPMI) medium (RPMI-A, Capricorn Scientific), containing 20% of the respective cell culture medium for each cell line but with a final concentration of FBS and L-glutamine of 40–42% and 0.8–1.2 mM, respectively, 0.2% NaHCO3 (S6297, Merck Sigma-Aldrich, Saint Louis, MI, USA), and 0.8% methylcellulose (M0512, Merck Sigma-Aldrich) for viscosity. The viscous cell solution was vortexed for 10 s and dispensed in an equal number of cells per well in 6-well plates (1.2 mL per well) in triplicate for each concentration of treatment. HaCaT and HEK-293 were seeded at a concentration of 2500 cells per mL, CCL-1 and HEPG2—2000 cells per mL, and HGF—1000 cells per mL. The plates were incubated for 6 to 10 days, and when the colonies reached 20 to 50 cells per colony, 100 µL MTT salt solution was added to each well. After half an hour, the stained colonies were counted manually using a microscope.

[11] = system: HaCaT cells; assay: Colony-forming unit assay; assay type: cell-based, human; conditions: for Colonies per well for HaCaT cells: mean of three wells; for Percentage of colonies, HaCaT: untreated control = 100%
Description: as §6

[12] = system: Methicillin-Resistant S. aureus (MRSA); conditions: ref [4],[29]; cited from earlier work
[13] = system: Enterococcus faecalis; conditions: ref [4],[29]; cited from earlier work
[14] = system: HEPG2; assay: MTT assay for cytotoxicity; assay type: cell-based, human
Description: as §3, §4, §5

[15] = system: HaCaT; assay: MTT assay for cytotoxicity; assay type: cell-based, human
Description: as §3, §4, §5

[16] = system: CCL-1 cells; assay: Colony-forming unit assay; assay type: cell-based, murine; conditions: for Percentage of colonies, CCL-1: untreated control = 100%
Description: as §6

[17] = system: panel of cancer cell lines; design: method as in PMID 39454890; conditions: ref [48]; read-out: IC50 against a panel of cancer cell lines; cited from earlier work
[18] = system: Pseudomonas aeruginosa PAO1; assay: MIC and MBC evaluation (broth microdilution, agar plate assay); assay type: cell-based; conditions: Pseudomonas aeruginosa, PAO1
Description: as §1, §2

[19] = system: breast cancer cell line; design: method as in PMID 26865836; conditions: 24 h, ref [93]; cited from earlier work
[20] = bactericidal if ≤ 4, bacteriostatic if > 4

COc1ccc(C(=O)CCc2c(OC)cc(O)cc2OC)cc1 [4-hydroxy-2,6,4′-trimethoxydihydrochalcone]
EC50 [1]: 1.48 µM

CNC(C)C1CCC(N)C(OC2C(N)CC(N)C(OC3OCC(C)(O)C(NC)C3O)C2O)O1 (stereo not drawn) [Gentamicin, reference compound]
MBC ([2]; Enterococcus faecalis): 72 µg/mL (≈ 151 µM) | MBC/MIC ratio, E. faecalis [2, 20]: 9 | MBC ([3]; Staphylococcus aureus): 1.9 µg/mL | MBC/MIC ratio, S. aureus [3]: 8 ^5 | MBC ([4]; Staphylococcus aureus, MRSA): 2.5 µg/mL (≈ 5.23 µM) | MBC/MIC ratio, MRSA [4, 20]: 20

CC(C)=CCC[C@]1(C)[C@@H](CC=C(C)C)C[C@]2(C)C(=O)C(CC=C(C)C)=C(O)[C@@]1(C(=O)C(C)C)C2=O [Hyperpolyphyllirin/hyperibine J]
MIC on bacteria, S. aureus [5]: 2 µg/mL (≈ 4.14 µM) | MIC on bacteria, S. pyogenes [6]: 31 µg/mL (≈ 64.2 µM) | Maximum tolerated concentration (MTC), CCL-1 [7]: 4.56 µg/mL | IC50, CCL-1 ([7]; MTT assay): 7.07 µg/mL (≈ 14.6 µM) | IC50 ([7]; converted to µM): 14.7 µM | Maximum tolerated concentration (MTC), HGF [8]: 10.47 µg/mL | IC50, HGF ([8]; MTT assay): 12.41 µg/mL (≈ 25.7 µM) | IC50 ([8]; converted to µM): 25.7 µM | Maximum tolerated concentration (MTC), HEK-293 [9]: 0.46 µg/mL | IC50, HEK-293 ([9]; MTT assay): 0.79 µg/mL (≈ 1.64 µM) | IC50 ([9]; converted to µM): 1.64 µM | Minimal bactericidal concentration (MBC), Staphylococcus aureus [3]: 94 µg/mL (≈ 195 µM) | MBC/MIC ratio, S. aureus [3]: 47 | MBC [3]: 194 µM | Colonies per well for HEK-293 cells ([10]; 1/2 × IC50, 48 h exposure): 110 | Percentage of colonies, HEK-293 ([10]; 1/2 × IC50): 89% | Colonies per well for HEK-293 cells ([10]; 2 × IC50, 48 h exposure): 67 | Percentage of colonies, HEK-293 ([10]; 2 × IC50): 54% | Colonies per well for HEK-293 cells ([10]; IC50, 48 h exposure): 91 | Percentage of colonies, HEK-293 ([10]; IC50): 73% | Colonies per well for HaCaT cells ([11]; 1/2 × IC50, 48 h exposure): 143 | Percentage of colonies, HaCaT ([11]; 1/2 × IC50): 259% | Colonies per well for HaCaT cells ([11]; 2 × IC50, 48 h exposure): 58 | Percentage of colonies, HaCaT ([11]; 2 × IC50): 105% | Colonies per well for HaCaT cells ([11]; IC50, 48 h exposure): 133 | Percentage of colonies, HaCaT ([11]; IC50): 241% | MIC on bacteria, MRSA [12]: 8 µg/mL (≈ 16.6 µM) | MIC on bacteria, E. faecalis [13]: 8 µg/mL (≈ 16.6 µM) | Maximum tolerated concentration (MTC), HEPG2 [14]: 5.13 µg/mL | IC50, HEPG2 ([14]; MTT assay): 14.33 µg/mL (≈ 29.7 µM) | IC50 ([14]; converted to µM): 29.7 µM | Maximum tolerated concentration (MTC), HaCaT [15]: 0.75 µg/mL | IC50, HaCaT ([15]; MTT assay): 2.29 µg/mL (≈ 4.74 µM) | IC50 ([15]; converted to µM): 4.74 µM | Colonies per well for CCL-1 cells ([16]; 1/2 × IC50, 48 h exposure): 162 | Percentage of colonies, CCL-1 ([16]; 1/2 × IC50): 111% | Colonies per well for CCL-1 cells ([16]; 2 × IC50, 48 h exposure): 113 | Percentage of colonies, CCL-1 ([16]; 2 × IC50): 77% | Colonies per well for CCL-1 cells ([16]; IC50, 48 h exposure): 116 | Percentage of colonies, CCL-1 ([16]; IC50): 79%

O=c1c(-c2c(O)cc(O)c3c(=O)cc(-c4ccc(O)cc4)oc23)c(-c2ccc(O)cc2)oc2cc(O)cc(O)c12 [I3-II8-biapigenin]
IC50 [17]: 107 to 198 µM

C[C@@H](O)[C@H]1C(=O)N2C(C(=O)O)=C(S[C@@H]3CN[C@H](C(=O)N(C)C)C3)[C@H](C)[C@H]12 [Meropenem, reference compound]
MBC [18]: 6.4 µg/mL (≈ 16.7 µM) | MIC [18]: 1.6 µg/mL (≈ 4.17 µM)

N.N.[Cl][Pt][Cl] [cisplatin]
IC50 for a breast cancer cell line [19]: 20 µg/mL
